Experimental data from patent publication US9556132B2, “Tetrazole derivatives and their use as potassium channel modulators” (SANIONA A/S, priority 2012, dated 2017).
pIC50: −log10 of the molar value. One block for each molecule: values may come before it.

Target: human IK (Homo sapiens (Human), UniProt O15554)
Assay: Inhibition of IK channels expressed in HEK293 cells, thallium (I) sensitive FLIPR assay
Format: cell-based
Details: HEK293 cells over-expressing human IK; Tl+-sensitive BTC fluorescence (FLIPR); inhibition of activity induced by Ca2+-ionophore A23187
Procedure: Following experiment determines the ability of a test compound to inhibit the activity of IK channels heterologously expressed in human HEK293 cells, and was used as the primary screen. The ability is determined as per cent inhibition of the activity induced by addition of the Ca^2+-ionophore A23187 (considered a maximum response). The activity is determined using a standard thallium (I) sensitive assay, e.g. using a fluorometric method in a Fluorescent Image Plate Reader (FLIPR) as described below in more detail.
Full concentration/response curves are generated and IC50 values are calculated based on the degree of inhibition of the maximum response. IC50 values (Inhibitory Concentration) represent the concentration of the test substance at which 50% of the maximum channel activity is inhibited.
Human HEK293 cells over-expressing human IK are grown in culture medium (DMEM supplemented with 10% foetal bovine serum), in polystyrene culture flasks ([…]) in a humidified atmosphere of 5% CO2 in air, at 37° C. Cell confluence should be 80-90% on day of plating. Cells are rinsed with 4 mL of PBS (phosphate buffered saline) and incubated 2 min with 1 mL of Trypsin-EDTA. After addition of 25 mL of culture medium cells are re-suspended by trituration with a 25 mL pipette.
The cells are seeded at a density of ˜3×10^6 cells/mL (25 μL/well) in black-walled, clear bottom, 384-well plates pre-treated with 0.01 g/L poly-D-lysin (20 μL/well for ≧30 min). Plated cells were allowed to proliferate for 24 h before loading with dye.
BTC-AM ([…], Invitrogen) is added 25.5 μl DMSO. The BTC-AM stock solution (2 mM) is diluted to a final concentration of 2 μM in […] assay buffer (in mM: 140 Na^+-gluconate, 2.5 K^+-gluconate, 6 Ca2^+-gluconate, 1 Mg^2+ gluconate, 5 glucose, 10 HEPES, pH 7.3) containing 2 μM ouabain, 2 mM amaranth and 1 mM tartrazine.
The culture medium is aspirated from the wells, and 25 μl of the BTC-AM loading solution are added to each well. The cells are incubated at 37° C. for 60 min.
After the loading period, the Tl^+-sensitive BTC fluorescence signal is measured over time using a FLIPR.
• Temperature: Room temp. • First addition: 12 μl test or control compound after 15 sec at a rate of 30 μL/sec and starting height of 20 μL • Second addition: 12 μL stimulus buffer (Cl^− free assay buffer supplemented with 1 mM Tl2SO4, 5 μM A23187 as well as the quenchers amaranth (2 mM) and tartrazine (1 mM)) is added after an additional 3 minutes at a rate of 30 μL/sec and starting height of 30 μL • Reading intervals: First sequence—3 sec×5, 2 sec×24 and 5 sec×25 • Second sequence—1 sec×5, 2 sec×24 and 5 sec×36
Addition plates (compound plate and stimulus plate) are placed in positions 2 and 3, respectively. Cell plates are placed in position 1 and run using the “IK blocker (EtOH wash, two additions)” program. FLIPR will then take the appropriate measurements in accordance with the interval settings above. Fluorescence obtained after stimulation is corrected for the mean basal fluorescence (in Cl^− free assay buffer).
Full concentration/response curves are generated and IC50 values (“Inhibitory Concentration”, i.e. the concentration of the test substance at which 50% of the maximum channel activity is inhibited) are calculated. The responses are calculated based on peak values.

SMILES: COc1ccccc1-c1ccccc1-c1nnnn1-c1ccccc1C#N [Compound 56, 2-{5-[2-(2-Methoxyphenyl)phenyl]-1H-1,2,3,4-tetrazol-1-yl}benzonitrile]
pIC50: 7.19

SMILES: COCCOc1ccccc1-c1ccccc1-c1nnnn1-c1ccccc1F [Compound 4, 1-(2-Fluorophenyl)-5-{2-[2-(2-methoxyethoxyl)phenyl]phenyl}-1H-1,2,3,4-tetrazole]
pIC50: 7.52

SMILES: O/N=C/c1ccccc1-c1ccccc1-c1nnnn1-c1ccccc1F [Compound 30, (E)-N-[(2-{2-[1-(2-Fluorophenyl)-1H-1,2,3,4-tetrazol-5-yl]phenyl}phenyl)methylidene]hydroxylamine]
pIC50: 7.24

SMILES: COc1ccccc1-c1ccccc1-c1nnnn1-c1ccccc1Cl [Compound 49, 1-(2-Chlorophenyl)-5-[2-(2-methoxyphenyl)phenyl]-1H-1,2,3,4-tetrazole]
pIC50: 6.27

SMILES: Fc1ccccc1-n1nnnc1-c1ccccc1-c1ccccc1 [Compound 40, 1-(2-Fluorophenyl)-5-(2-phenylphenyl)-1H-1,2,3,4-tetrazole]
pIC50: 6.10

SMILES: Fc1ccccc1-n1nnnc1-c1ccccc1-c1ccccc1C(F)(F)F [Compound 22, 1-(2-Fluorophenyl)-5-{2-[2-(trifluoromethyl)phenyl]phenyl}-1H-1,2,3,4-tetrazole]
pIC50: 5.77

SMILES: COc1ccccc1-c1ccccc1-c1nnnn1-c1ccccc1OC(F)F [Compound 59, 1-[2-(Difluoromethoxy)phenyl]-5-[2-(2-methoxyphenyl)phenyl]-1H-1,2,3,4-tetrazole]
pIC50: 7.16

SMILES: Fc1ccccc1-n1nnnc1-c1ccccc1-c1ccccc1OC(F)(F)F [Compound 15, 1-(2-Fluorophenyl)-5-{2-[2-(trifluoromethoxy)phenyl]phenyl}-1H-1,2,3,4-tetrazole]
pIC50: 5.77

SMILES: COC(=O)COc1ccccc1-c1ccccc1-c1nnnn1-c1ccccc1F [Compound 8, Methyl 2-(2-{2-[1-(2-fluorophenyl)-1H-1,2,3,4-tetrazol-5-yl]phenyl}phenoxy)acetate]
pIC50: 6.23

SMILES: c1ccc(-c2ccccc2-c2nnnn2-c2ccccc2)cc1 [Compound 65, 1-Phenyl-5-(2-phenylphenyl)-1H-1,2,3,4-tetrazole]
pIC50: 6.05

SMILES: N#CCOc1ccccc1-c1ccccc1-c1nnnn1-c1ccccc1F [Compound 7, 2-(2-{2-[1-(2-Fluorophenyl)-1H-1,2,3,4-tetrazol-5-yl]phenyl}phenoxy)acetonitrile]
pIC50: 7.80

SMILES: Fc1ccccc1-c1ccccc1-c1nnnn1-c1ccccc1OC(F)F [Compound 58, 1-[2-(Difluoromethoxy)phenyl]-5-[2-(2-fluorophenyl)phenyl]-1H-1,2,3,4-tetrazole]
pIC50: 5.96

SMILES: CC(C)Oc1ccccc1-c1ccccc1-c1nnnn1-c1ccccc1F [Compound 9, 1-(2-Fluorophenyl)-5-{2-[2-(propan-2-yloxy)phenyl]phenyl}-1H-1,2,3,4-tetrazole]
pIC50: 6.11

SMILES: COCOc1ccccc1-c1ccccc1-c1nnnn1-c1ccccc1F [Compound 16, 1-(2-Fluorophenyl)-5-{2-[2-(methoxymethoxy)phenyl]phenyl}-1H-1,2,3,4-tetrazole]
pIC50: 6.72

SMILES: NC(=O)COc1ccccc1-c1ccccc1-c1nnnn1-c1ccccc1F [Compound 17, 2-(2-{2-[1-(2-Fluorophenyl)-1H-1,2,3,4-tetrazol-5-yl]phenyl}phenoxy)acetamide]
pIC50: 6.00

SMILES: Fc1ccccc1-n1nnnc1-c1ccccc1-c1ccccc1OCC1CC1 [Compound 6, 5-{2-[2-(Cyclopropylmethoxy)phenyl]phenyl}-1-(2-fluorophenyl)-1H-1,2,3,4-tetrazole]
pIC50: 6.15

SMILES: Fc1ccccc1-n1nnnc1-c1ccccc1-c1ccccc1OC(F)F [Compound 5, 5-{2-[2-(Difluoromethoxy)phenyl]phenyl}-1-(2-fluorophenyl)-1H-1,2,3,4-tetrazole]
pIC50: 6.54

SMILES: COc1ccccc1-c1ccccc1-c1nnnn1-c1ccccc1O [Compound 53, 2-{5-[2-(2-Methoxyphenyl)phenyl]-1H-1,2,3,4-tetrazol-1-yl}phenol]
pIC50: 5.92

Second part, the molecule after the results:

pIC50: 6.54
SMILES: CCc1ccccc1-c1ccccc1-c1nnnn1-c1ccccc1F [Compound 20, 5-[2-(2-Ethylphenyl)phenyl]-1-(2-fluorophenyl)-1H-1,2,3,4-tetrazole]

pIC50: 6.09
SMILES: CN(C)c1ccccc1-c1ccccc1-c1nnnn1-c1ccccc1F [Compound 26, 2-{2-[1-(2-Fluorophenyl)-1H-1,2,3,4-tetrazol-5-yl]phenyl}-N,N-dimethylaniline]

pIC50: 6.06
SMILES: Fc1ccccc1-n1nnnc1-c1ccccc1-c1ccccc1C(F)F [Compound 32, 5-{2-[2-(Difluoromethyl)phenyl]phenyl}-1-(2-fluorophenyl)-1H-1,2,3,4-tetrazole]

pIC50: 6.00
SMILES: Fc1ccccc1-c1ccccc1-c1nnnn1-c1ccccc1Cl [Compound 48, 1-(2-Chlorophenyl)-5-[2-(2-fluorophenyl)phenyl]-1H-1,2,3,4-tetrazole]

pIC50: 7.24
SMILES: COCc1ccccc1-c1ccccc1-c1nnnn1-c1ccccc1F [Compound 29, 1-(2-Fluorophenyl)-5-{2-[2-(methoxymethyl)phenyl]phenyl}-1H-1,2,3,4-tetrazole]

pIC50: 7.77
SMILES: FCc1ccccc1-c1ccccc1-c1nnnn1-c1ccccc1F [Compound 33, 5-{2-[2-(Fluoromethyl)phenyl]phenyl}-1-(2-fluorophenyl)-1H-1,2,3,4-tetrazole]

pIC50: 6.96
SMILES: N#Cc1ccccc1-c1ccccc1-c1nnnn1-c1ccccc1F [Compound 31, 2-{2-[1-(2-Fluorophenyl)-1H-1,2,3,4-tetrazol-5-yl]phenyl}benzonitrile]

pIC50: 6.26
SMILES: Fc1ccccc1-n1nnnc1-c1ccccc1-c1ccccc1Br [Compound 23, 5-[2-(2-Bromophenyl)phenyl]-1-(2-fluorophenyl)-1H-1,2,3,4-tetrazole]

pIC50: 6.15
SMILES: Fc1ccccc1-c1ccccc1-c1nnnn1-c1ccccc1F [Compound 25, 1-(2-Fluorophenyl)-5-[2-(2-fluorophenyl)phenyl]-1H-1,2,3,4-tetrazole]

pIC50: 6.34
SMILES: CSc1ccccc1-c1ccccc1-c1nnnn1-c1ccccc1F [Compound 14, 1-(2-Fluorophenyl)-5-{2-[2-(methylthio)phenyl]phenyl}-1H-1,2,3,4-tetrazole]

pIC50: 6.11
SMILES: COc1ccccc1-n1nnnc1-c1ccccc1-c1ccccc1F [Compound 54, 5-[2-(2-Fluorophenyl)phenyl]-1-(2-methoxyphenyl)-1H-1,2,3,4-tetrazole]

pIC50: 6.05
SMILES: Nc1ccccc1-c1ccccc1-c1nnnn1-c1ccccc1F [Compound 27, 2-{2-[1-(2-Fluorophenyl)-1H-1,2,3,4-tetrazol-5-yl]phenyl}aniline]

pIC50: 7.43
SMILES: CCOc1ccccc1-c1ccccc1-c1nnnn1-c1ccccc1F [Compound 3, 5-[2-(2-Ethoxyphenyl)phenyl]-1-(2-fluorophenyl)-1H-1,2,3,4-tetrazole]

pIC50: 6.29
SMILES: Cc1ccccc1-c1ccccc1-c1nnnn1-c1ccccc1F [Compound 19, 1-(2-Fluorophenyl)-5-[2-(2-methylphenyl)phenyl]-1H-1,2,3,4-tetrazole]

pIC50: 6.96
SMILES: COc1ccccc1-c1ccccc1-c1nnnn1-c1ccccc1F [Compound 13, 1-(2-Fluorophenyl)-5-[2-(2-methoxyphenyl)phenyl]-1H-1,2,3,4-tetrazole]

pIC50: 5.23
SMILES: Oc1ccccc1-c1ccccc1-c1nnnn1-c1ccccc1F [Compound 2, 2-{2-[1-(2-Fluorophenyl)-1H-1,2,3,4-tetrazol-5-yl]phenyl}phenol]
